Measured values taken from patent US20220323490A1, “PREVENTION OF DISEASES IN HONEYBEES” (Arkema Inc., priority 2019, published 2022).
Entries after “also recorded” stand apart in the source; their conditions may differ. Read-outs that look alike come from different tables or passages of the source.

Tests used:
[1] = test system: honeybee (Apis mellifera) workers; conditions: for X3, best estimate of EC5 concentration (Molar hydrogen peroxide): cubic model solution; for EC5 (Percent): percent H2O2 calculated from X3; for Predicted LC50 Log10 Molar (±se) / Predicted LC50 (Molar) / Predicted LC50 (Percent): oral, in 2M sucrose; for Predicted LC50 Log10 Molar (±se): Probit analysis; for Predicted LC50 (Molar): inverse of log10 data; for Predicted LC50 (Percent): percent hydrogen peroxide
Procedure: The twenty-four and forty-eight hour oral lethal concentration (LC50) of formulated hydrogen peroxide (HP) was determined for one-week and two-week old honeybee (Apis mellifera) workers fed a series of solutions of HP diluted in 2 Molar (M) sucrose.
Five hydrogen peroxide (HP) solutions at 4.7, 3.7, 2.7, 1.7, 0.7 M HP in 2 Molar (M) sucrose, and a 0.00 M HP 2M sucrose solution were prepared using 35% food grade hydrogen peroxide, molecular grade sucrose (Sigma Aldrich, USA), and molecular grade water (Sigma Aldrich, USA).
Approximately 200 bees were collected into several wooden cages, supplied with ad libitum HP-free 2M sucrose solution, water, and BeePro® supplemented pollen patty. Experimental trials commenced at seven and fourteen days after newly emerged honeybees were placed in cages.
Following this, an EC5 was calculated by solving the cubic (sigmoidal) model for ‘x’ given an intercept term constrained to zero (concentration) and a ‘y’ value of 0.05.

[2] = Stability of hydrogen peroxide in sugar solution; conditions: ambient temperature
[3] = one-week old honeybees, 24 Hour
[4] = one-week old honeybees, 48 Hour
[5] = two-week old honeybees, 24 Hour
[6] = two-week old honeybees, 48 Hour

## OO [hydrogen peroxide]
[1]; 0.7 Molar H2O2 in 2M sucrose, one-week old honeybees, 24 Hour
  Mean (±se) Mortality: 3.38 (1.38)
[1]; 0.7 Molar H2O2 in 2M sucrose, one-week old honeybees, 48 Hour
  Mean (±se) Mortality: 9.63 (2.23)
[1]; 0.7 Molar H2O2 in 2M sucrose, two-week old honeybees, 24 Hour
  Mean (±se) Mortality: 7.00 (2.19)
[1]; 0.7 Molar H2O2 in 2M sucrose, two-week old honeybees, 48 Hour
  Mean (±se) Mortality: 12.75 (1.96)
[1]; 1.7 Molar H2O2 in 2M sucrose, one-week old honeybees, 24 Hour
  Mean (±se) Mortality: 10.25 (1.42)
[1]; 1.7 Molar H2O2 in 2M sucrose, one-week old honeybees, 48 Hour
  Mean (±se) Mortality: 18.13 (1.06)
[1]; 1.7 Molar H2O2 in 2M sucrose, two-week old honeybees, 24 Hour
  Mean (±se) Mortality: 12.00 (2.32)
[1]; 1.7 Molar H2O2 in 2M sucrose, two-week old honeybees, 48 Hour
  Mean (±se) Mortality: 16.25 (1.50)
[1]; 2.7 Molar H2O2 in 2M sucrose, one-week old honeybees, 24 Hour
  Mean (±se) Mortality: 15.63 (1.19)
[1]; 2.7 Molar H2O2 in 2M sucrose, one-week old honeybees, 48 Hour
  Mean (±se) Mortality: 19.88 (1.63)
[1]; 2.7 Molar H2O2 in 2M sucrose, two-week old honeybees, 24 Hour
  Mean (±se) Mortality: 14.13 (2.12)
[1]; 2.7 Molar H2O2 in 2M sucrose, two-week old honeybees, 48 Hour
  Mean (±se) Mortality: 19.50 (1.00)
[1]; 3.7 Molar H2O2 in 2M sucrose, one-week old honeybees, 24 Hour
  Mean (±se) Mortality: 15.25 (1.70)
[1]; 3.7 Molar H2O2 in 2M sucrose, one-week old honeybees, 48 Hour
  Mean (±se) Mortality: 21.50 (0.96)
[1]; 3.7 Molar H2O2 in 2M sucrose, two-week old honeybees, 24 Hour
  Mean (±se) Mortality: 16.63 (1.92)
[1]; 3.7 Molar H2O2 in 2M sucrose, two-week old honeybees, 48 Hour
  Mean (±se) Mortality: 20.75 (0.53)
[1]; 4.7 Molar H2O2 in 2M sucrose, one-week old honeybees, 24 Hour
  Mean (±se) Mortality: 15.75 (1.53)
[1]; 4.7 Molar H2O2 in 2M sucrose, one-week old honeybees, 48 Hour
  Mean (±se) Mortality: 21.38 (0.99)
[1]; 4.7 Molar H2O2 in 2M sucrose, two-week old honeybees, 24 Hour
  Mean (±se) Mortality: 17.88 (1.51)
[1]; 4.7 Molar H2O2 in 2M sucrose, two-week old honeybees, 48 Hour
  Mean (±se) Mortality: 20.13 (1.36)
[1]; all tested concentrations (0.7-4.7 M HP in 2M sucrose), Wilcoxon multiple comparisons P<0.001
  honey bee mortality versus control group: significantly greater than mortality of honeybees in control group
[1]; [3]
  X3, best estimate of EC5 concentration (Molar hydrogen peroxide): 0.21 Molar
  EC5 (Percent): 0.57%
  Predicted LC50 Log10 Molar (±se): 0.29 (0.02) Log10 Molar
  Predicted LC50 (Molar): 1.95 (0.09) Molar
  Predicted LC50 (Percent): 5.30 (0.25) Percent
[1]; [4]
  X3, best estimate of EC5 concentration (Molar hydrogen peroxide): 0.15 Molar
  EC5 (Percent): 0.41%
  Predicted LC50 Log10 Molar (±se): −0.10 (0.03) Log10 Molar
  Predicted LC50 (Molar): 0.79 (0.05) Molar
  Predicted LC50 (Percent): 2.15 (0.14) Percent
[1]; [5]
  Predicted LC50 Log10 Molar (±se): 0.15 (0.03) Log10 Molar
  Predicted LC50 (Molar): 1.41 (0.10) Molar
  Predicted LC50 (Percent): 3.84 (0.28) Percent
  X3, best estimate of EC5 concentration (Molar hydrogen peroxide): 0.20 Molar
  EC5 (Percent): 0.54%
[1]; [6]
  Predicted LC50 Log10 Molar (±se): −0.25 (0.06) Log10 Molar
  Predicted LC50 (Molar): 0.56 (0.08) Molar
  Predicted LC50 (Percent): 1.52 (0.22) Percent
  X3, best estimate of EC5 concentration (Molar hydrogen peroxide): 0.15 Molar
  EC5 (Percent): 0.41%
[2]; 0.1% and 1.0% H2O2 in 50% (w/w) sucrose, over 7 weeks
  Stability (degradation) of hydrogen peroxide in sugar solution: No degradation; also recorded: stable in a sugar solution
[2]; nominal 0.1% H2O2 in 50% (w/w) sucrose, 10 days
  Hydrogen peroxide concentration in sugar solution: 0.134
[2]; nominal 0.1% H2O2 in 50% (w/w) sucrose, 27 days
  Hydrogen peroxide concentration in sugar solution: 0.134
[2]; nominal 0.1% H2O2 in 50% (w/w) sucrose, 51 days
  Hydrogen peroxide concentration in sugar solution: 0.130
[2]; nominal 0.1% H2O2 in 50% (w/w) sucrose, time 0
  Hydrogen peroxide concentration in sugar solution: 0.134
[2]; nominal 1.0% H2O2 in 50% (w/w) sucrose, 10 days
  Hydrogen peroxide concentration in sugar solution: 1.089
[2]; nominal 1.0% H2O2 in 50% (w/w) sucrose, 27 days
  Hydrogen peroxide concentration in sugar solution: 1.058
[2]; nominal 1.0% H2O2 in 50% (w/w) sucrose, 51 days
  Hydrogen peroxide concentration in sugar solution: 1.089
[2]; nominal 1.0% H2O2 in 50% (w/w) sucrose, time 0
  Hydrogen peroxide concentration in sugar solution: 1.077
